In series [1] the target is T1, CYP2D6 (Homo sapiens, UniProt P10635). To be noted: cited from earlier work.
For series [2] the following is noted: reported therapeutic concentrations; ref Kirchherr and Kühn-Velten [18]; cited from earlier work.
For series [3], the system named is CYP3A. Briefly: Inhibition of CYP3A-mediated midazolam 1′-hydroxylation in human liver microsomes. Conditions: for Inhibitory potency ([inhibitor]/K i), CYP3A (1-hydroxylation): relative to the mean of reported therapeutic concentrations. Type of series: in vitro ADME. Here is the method:
(§1) The mass spectrometer was run in the positive ion mode. Nitrogen as the drying gas was supplied at a flow of 10 L/minutes and at a temperature of 350°C.

Series [4] concerns the target T1, CYP2D6. Briefly: biochemical. From the text:
The composition of the mobile phase was 40% acetonitrile: 60% acetic acid (0.1%) (vol/vol).

Series [5] deals with CYP2C9 (Homo sapiens, UniProt P11712). Kind of series: Inhibition of CYP2C9-mediated diclofenac 4′-hydroxylation in human liver microsomes. To be noted: 15 μM diclofenac, antipsychotics 0.05 to 50 μM, abaperidone up to 20 μM. For orientation: Liver microsomes are a subcellular fraction often used to study metabolism.
Procedure: Inhibition studies on four different CYP isoform-specific substrates were carried out in human liver microsomes (Gentest Corporation, Woburn, MA). Assessed reactions were phenacetin O-deethylation for CYP1A2, (+/−)-bufuralol 1′-hydroxylation for CYP2D6, diclofenac 4′-hydroxylation for CYP2C9, and midazolam 1′- and 4′-hydroxylation for CYP3A. The different antipsychotics were dissolved in methanol and serially diluted with 100 mM tris buffer (pH = 7.5) to obtain final concentrations ranging from 0.05 to 50 μM. Abaperidone was an exception and was dissolved in hot water up to a maximum concentration of 20 μM.
Reactions were started by adding microsomal protein and the mix was then vortexed and incubated at 37°C for 30 min. The process was stopped by the addition of acetonitrile and incubation on ice during 10 minutes. Samples were then centrifuged at 10,000 g for 3 minutes, and the supernatant was taken for subsequent HPLC analysis. Control inhibition studies were carried out with prototypic inhibitors in increasing concentrations up to 20 μM, namely, furafylline (CYP1A2), quinidine (CYP2D6), sulphaphenazole (CYP2C9), and ketoconazole (CYP3A).
The effect of antipsychotics on the rate of CYP-catalyzed probe substrates was expressed as a percentage of the control activity with no antipsychotic present.
The subject of series [6] is CYP3A. Briefly: Inhibition of CYP3A-mediated midazolam 4′-hydroxylation in human liver microsomes. Type of series: in vitro ADME. To be noted: abaperidone up to 20 μM. As to the method:
as §1

SMILES strings stand for the structures.

T1 sequence (P10635 whole entry): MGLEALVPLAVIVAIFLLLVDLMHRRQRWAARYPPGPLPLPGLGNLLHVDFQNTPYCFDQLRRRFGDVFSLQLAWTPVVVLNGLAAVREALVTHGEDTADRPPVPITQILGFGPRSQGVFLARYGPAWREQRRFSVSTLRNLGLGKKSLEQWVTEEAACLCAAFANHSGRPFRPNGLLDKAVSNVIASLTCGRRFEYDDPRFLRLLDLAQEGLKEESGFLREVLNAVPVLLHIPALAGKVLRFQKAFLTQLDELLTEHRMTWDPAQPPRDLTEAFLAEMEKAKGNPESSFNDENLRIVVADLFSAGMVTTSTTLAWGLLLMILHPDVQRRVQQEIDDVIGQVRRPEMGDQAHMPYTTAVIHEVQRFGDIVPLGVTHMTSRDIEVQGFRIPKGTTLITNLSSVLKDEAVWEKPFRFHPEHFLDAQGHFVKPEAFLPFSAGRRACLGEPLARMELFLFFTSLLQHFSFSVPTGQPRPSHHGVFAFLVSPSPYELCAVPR
Chain of CYP2C9 (P11712 whole entry): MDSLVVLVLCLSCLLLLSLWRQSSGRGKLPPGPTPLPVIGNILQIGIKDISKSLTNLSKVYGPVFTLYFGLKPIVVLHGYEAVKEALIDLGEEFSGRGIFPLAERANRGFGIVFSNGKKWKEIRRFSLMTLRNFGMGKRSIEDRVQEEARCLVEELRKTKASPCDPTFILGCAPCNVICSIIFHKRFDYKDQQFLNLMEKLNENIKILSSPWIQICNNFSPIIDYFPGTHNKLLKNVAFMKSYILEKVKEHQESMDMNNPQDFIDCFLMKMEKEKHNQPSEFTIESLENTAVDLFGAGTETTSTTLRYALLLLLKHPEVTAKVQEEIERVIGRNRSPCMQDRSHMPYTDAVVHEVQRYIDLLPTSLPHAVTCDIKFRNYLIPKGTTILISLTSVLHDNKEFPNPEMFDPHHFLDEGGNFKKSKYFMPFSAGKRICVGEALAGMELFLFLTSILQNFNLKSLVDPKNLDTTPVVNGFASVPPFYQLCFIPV

Turning to `O=C(CCCN1CCC(O)(c2ccc(Cl)cc2)CC1)c1ccc(F)cc1` [Haloperidol], the “Inhibition of CYP2D6 (in words, literature)” value in series [1] was “inhibitory effect”.

Take `COc1ccc2c(c1)N(C[C@H](C)CN(C)C)c1ccccc1S2` [Levomepromazine]: the Therapeutic range in series [2] was 0.05 to 0.2 µM. For the same compound, the Ki at 30 min in series [3] (human, human liver microsomes, pH 7.5, probe midazolam (1′-hydroxylation), 10 μM, estimate obtained from IC50 as described in [17] (IC50-to-Ki tool), read-out: K i, CYP3A (1-hydroxylation)) is 15 µM. The inhibition at 30 min in series [3] (pH 7.5, probe midazolam (1′-hydroxylation), 10 μM, human liver microsomes, inhibitor 0.05 to 50 μM, read-out: I max (maximum inhibition), CYP3A (1-hydroxylation)) turned out to be 58.2%. In series [3] (pH 7.5, probe midazolam (1′-hydroxylation), human liver microsomes, 10 μM midazolam, 30 min 37°C), this compound returned an IC50 at 30 min of 30 µM. The “Inhibitory potency ([inhibitor]/K i), CYP3A (1-hydroxylation)” value in series [3] came out at 0.0083. In series [4], the IC50 was 25.5 µM and the Ki was 12.8 µM.

As to `Cc1cc2c(s1)Nc1ccccc1N=C2N1CCN(C)CC1` [Olanzapine], in series [2], the Therapeutic range is 0.06 to 0.25 µM.

Take `Cc1nc2n(c(=O)c1CCN1CCC(c3noc4cc(F)ccc34)CC1)CCCC2` [Risperidone]: the “Inhibitory potency ([inhibitor]/K i), CYP3A (1-hydroxylation)” value in series [3] is 0.0092.

`O=c1c(CO)coc2cc(OCCCN3CCC(c4noc5cc(F)ccc45)CC3)ccc12` [abaperidone, 7-[3-[4-(6-fluoro-1,2-benzisoxazol-3-yl)-piperidin-1-yl]propoxy]-3-(hydroxymethyl)chromen-4-one]: the “Inhibition of CYP2C9 (in words)” value in series [5] is listed as “did not cause a significant inhibition”. In series [3] (human liver microsomes, abaperidone up to 20 μM), the “Inhibition of CYP3A midazolam 1′-hydroxylation (in words)” value is on record as “did not cause a significant inhibition”. In addition, the “Inhibition of CYP3A midazolam 4′-hydroxylation (in words)” value in series [6] was “did not cause a significant inhibition”.

For `CN1CCN(C2=Nc3cc(Cl)ccc3Nc3ccccc32)CC1` [clozapine], the “Inhibition of CYP2D6 (in words, literature)” value in series [1] is on record as “inhibitory effect”.

One may read the inhibition as the change of the read-out against control, counted positive when it falls. A word on the IC50: it is the concentration needed to halve the response being measured. A lower IC50 goes with higher potency.
